One assay deals with T1, EGF receptor (Homo sapiens, UniProt P00533).
T1 construct: made in house
The assay can be described thus: Kinetics of EGF receptor phosphorylating synthetic peptide. Type of assay: biochemical. The conditions noted are these: peptide as substrate; 10 μM ATP, 10 mM MnCl2, pH 7.0. The source says:
(§1) The degenerate peptide library constructed as described in Example 1, with either serine or tyrosine at the 7th position, was used as a substrate for several different protein kinases. Protein kinase A (bovine) was obtained commercially (Sigma). GST-cyclin B/p33^cdc2 (Atherton-Fessler et al. (1993) Mol. Cell. Biol. 13:1675-1685), GST-cyclinA/p33^CDK2 (Atherton-Fessler et al. (1993) Mol. Cell. Biol. 13:1675-1685), human EGF receptor, chicken pp60^v-src, polyoma virus middle T antigen/pp60^c-src (Piwnica-Worms et al. (1990) J. Virol. 64:61-68) and pp92^c-pfs/fes were expressed by baculoviruses. The baculovirus-expressed protein kinases were immobilized on protein A beads using precipitating antibodies or on glutathione-agarose bead for kinases obtained as GST fusion proteins to minimize the problem of separating the peptides from the enzyme or impurities in the enzyme. […]
(§2) The peptide sequences predicted to be optimal substrates for the cyclindependent serine/threonine kinases and for pp60^v-src tyrosine kinase were synthesized to determine whether they are indeed good substrates for these kinases. […] After 2 and a half minutes incubation, the supernatants were spotted on phosphocellulose paper (p81), washed four times with 75 mM phosphoric acid, and radioactivity counted on a scintillation counter. […] The Km and Vmax were calculated using the Kaleidagraph computer software.

Another assay concerns the target T2, cyclin A/p33^CDK2 (Homo sapiens, UniProt P24941).
T2 construct: made in house
Nature of the assay: Kinetics of cyclin A/p33CDK2 phosphorylating synthetic peptide. Type of assay: biochemical. The conditions noted are these: peptide as substrate; 10 μM ATP, 10 mM MgCl2, pH 7.0.
Excerpt: as §1, §2

In another assay the target is PKA (Bos taurus, UniProt P00517). As to conditions: relative to Kemptide; cited from earlier work.

Where no end group is shown, it is not given here.

Consider `CC[C@H](C)[C@H](NC(=O)[C@H](CCC(=O)O)NC(=O)[C@H](CCC(=O)O)NC(=O)[C@H](CCC(=O)O)NC(=O)[C@H](C)N)C(=O)N[C@@H](Cc1ccc(O)cc1)C(=O)NCC(=O)N[C@@H](CCC(=O)O)C(=O)N[C@@H](Cc1ccccc1)C(=O)N[C@@H](CCC(=O)O)C(=O)N[C@@H](C)C(=O)N[C@@H](CCCCN)C(=O)N[C@@H](CCCCN)C(=O)N[C@@H](CCCCN)C(=O)N[C@@H](CCCCN)C(=O)O` [AEEEIYGEFEAKKKK, Ala-Glu-Glu-Glu-Ile-Tyr-Gly-Glu-Phe-Glu-Ala-Lys-Lys-Lys-Lys], for which the Km (in general, the concentration of substrate that gives half-maximal velocity) on EGF receptor was found to be 34 µM.

“ARRPMSPKKKA [ARRPMSPKKKA, Ala-Arg-Arg-Pro-Met-Ser-Pro-Lys-Lys-Lys-Ala]”: the Km at cyclin A/p33^CDK2 stood at 15 µM.

Turning to “Optimal peptide substrate based on fragment of Walsh inhibitor: known PKA peptide substrate, sequence G R T G R R N S I, from the literature (GRTGRRNSI)”, the “fold lower KM than Kemptide” value with PKA was 40 fold.

The record behind these values is patent publication US5532167A, “Substrate specificity of protein kinases” (Beth Israel Hospital, priority 1994, dated 1996).
